Article PMC9118553, “In Vivo Bioconcentration of 10 Anionic Surfactants in Rainbow Trout Explained by In Vitro Data on Partitioning and S9 Clearance” (Environmental Science & Technology, 2022)

Columns and labels:
[1] = design: method as in REACH dossier; conditions: method as noted in the cell (shake flask, solubility ratio, HPLC, BCFBAF, pH); ref REACH dossier; cited from earlier work
[2] = ref REACH dossier; cited from earlier work
rainbow trout = conditions: rainbow trout, similar water hardness; cited from earlier work
several species = test system: several species; design: method as in doi:10.1186/s12302-020-00435-1; conditions: LSC of radiolabeled compound, upper boundary; cited from earlier work
[3] = design: method as in REACH dossier; conditions: experimental, several studies; ref REACH dossier; cited from earlier work
Danio rerio = conditions: in vivo, pH 7.6; cited from earlier work
[4] = RT-S9 substrate depletion assay, individual compounds, with IVIVE; conditions: tested individually
Method: The in vitro intrinsic clearance by the S9 fraction of rainbow trout liver was measured for the same 11 anionic surfactants used in the BCF experiment as separate compounds. […] An established RT-S9 substrate depletion assay was employed,[25]−[27] predating the currently available OECD guideline 319B.[28] A single batch of the characterized liver homogenate material was prepared at the US EPA lab in Duluth and shipped on dry ice to the testing facilities at the University of Amsterdam. The test was conducted using the same method applied for a series of cationic surfactants in Droge et al.[29] and is summarized together with the in vitro–in vivo extrapolation in Text S4.
(§1) Text S4: Trout liver S9 parent depletion assay details and IVIVE
(§2) Liver tissue was separately pooled from the same five rainbow trout (three males/two females, ~300 g, liver weight ~3 g) used also for the RT-S9 study on a series of cationic surfactants (Droge et al., 2021b). The liver sample was homogenized in an appropriate buffer and then centrifuged to yield a 13,000 x g supernatant (the ‘S9 fraction’, lacking only mitochondrial fractions). No further refinement towards microsomal fractions was made to remove cytosolic and lysosomal components.
(§3) Upon arrival at the University of Amsterdam the liver
(§4) S9 material was stored in a -80 °C freezer until use.
(§5) Individual chemicals were first dissolved in methanol and then further diluted to 20% methanol in 100 mM phosphate buffer to make a ~20 µM stock solution, which was then spiked as 10 µL in 190 µL of active S9 mixture. The active S9 mixture consisted of 100 mM potassium phosphate-buffered saline (PPBS) adjusted to pH 7.8, 2 mM β-NADPH, 2 mM UDPGA, 0.1 mM PAPS, 5 mM GSH, 10 μg/mL alamethicin (in methanol carrier; 0.1% v/v final concentration), and 2 mg/mL S9 protein. The substrate depletion assays were performed using the multiple vial method described in OECD TG 319B, employing two or three separately spiked series.
(§6) Reactions were performed at 11 °C in a temperature-controlled water bath (B. Braun Frigomix-R) that was placed on a 2 cm travel path shaker (Gerhardt LS 10) set at 45 rpm. As a positive […]
(§7) alkylsulfonates, no additional assays with inactivated RT-S9 were performed.
(§8) Reactions were quenched with 600 µL ice-cold acetonitrile. After 10 s vortexing and 5 min centrifugation (Hermle Z300, 2500 rpm), 100 µL clear supernatant was transferred into 300 µL glass inserts placed in new autosampler vials, and mixed with 100 µL pure water. Concentrations were measured using a Prominence UFLC-XR system (Shimadzu) coupled to a tandem mass spectrometer (QTRAP 4000, Applied Biosystems) with a Turbo Ion spray source operated at 400 ◦C. For chromatographic separations, a 100 x 2.1mm x 2.7 µm Supelco Ascentis Express column was used (40 °C), with eluent A: pure water with 2 mM ammonium acetate, and eluent […]
(§9) prepared in 50% acetonitrile/water, calibration curves used covered at least four points in a log-linear range. The lowest external standard to fit the log-linear calibration curve served as limit of quantification, requiring a peak of at least 10x the average noise.
(§10) Each vial was treated as an independent vial with recorded exposure time. Log-transformed concentration data of the parent compound were plotted against exposure time (min) and analysed using Graphpad PRISM 8. […]
(§11) the slope (min-1) was multiplied by -2.3 and by 60 (min h-1) to obtain a first order depletion rate […]
(§12) Extrapolation of kdep to whole body rate biotransformation rate constant (kB-S9) The basic approach to extrapolate first order depletion rate constants (k dep) to whole body

[5] = marked * = measured; used for IVIVE; same values as Table 3; cited from earlier work
[6] = RT-S9 substrate depletion assay, mixture of 9 anionic surfactants (AnionMixture); conditions: tested in a mixture
Method: An established RT-S9 substrate depletion assay was employed,[25]−[27] predating the currently available OECD guideline 319B.[28] A single batch of the characterized liver homogenate material was prepared at the US EPA lab in Duluth and shipped on dry ice to the testing facilities at the University of Amsterdam. The test was conducted using the same method applied for a series of cationic surfactants in Droge et al.[29] and is summarized together with the in vitro–in vivo extrapolation in Text S4.
as §1, §2, §3, §4, §5, §6, §7, §8, §9, §10, §11, §12

carp = test system: carp; design: method as in REACH dossier; conditions: carp 28d pH7; ref REACH dossier; cited from earlier work
Cyprinus carpio = conditions: in vivo; cited from earlier work

Row | SMILES | LogKow [1] | Degradation information ~28d-sludge test (% degradable) [2] | further results
1 | CCCCCCCC(C=O)NCCCCCC(=O)O (stereo not shown) [6-[(1-formyloctyl)amino]hexanoic acid] | 2.47 | 98% | –
2 | CCCCCCCCC(=O)O [nonanoic acid] | 3.42 | 68 -75% | –
3 | CCCCCCCCP(=O)(O)O [octylphosphonic acid] | 2.7 | 65-88% | –
4 | CCCCCCC(O)CCCCCCCCCCC(=O)[O-].CCCCCCCCCCCCCCCCCC(=O)[O-].[Li+].[Li+] (stereo not shown) [dilithium(1+) ion 12-hydroxyoctadecanoate octadecanoate] | – | 74-97% | –
5 | CCCCCCCCCC(C)c1ccc(S(=O)(=O)O)cc1 (stereo not shown) [C11-2-LAS, reference compound] | – | – | BCF (rainbow trout): 6 L kg^–1
6 | CC(C)CP(=S)([S-])CC(C)C.[Na+] [sodium diisobutylphosphinodithioate] | -1.64 | 78,8% | –
7 | CCCCCCCCCCCCOS(=O)(=O)[O-].[Na+] [C12SO4, sodium dodecylsulfate] | – | 94-97% | BCF (several species): 1–7.15 L kg^–1; BCF [3]: 1-10
8 | CCCCCCCCCCCCOP(=O)([O-])O.[K+] [potassium dodecyl hydrogen phosphate] | 2.74 | 4-63% | –
9 | CCCCCCC(O)CCCCCCCCCCC(=O)[O-].[Li+] (stereo not shown) [lithium(1+) ion 12-hydroxyoctadecanoate] | – | 74-97% | –
10 | CCCCCCCCCCCCCCCCCCOP(=O)([O-])[O-].[K+].[K+] [1-Octadecanol, phosphate, potassium salt] | 8.556 | 0% | –
11 | CCCCCCCCCCCC(=O)O [C11CO2] | – | – | BCF (Danio rerio): 255 L/kg; Exp BCF (Danio rerio): 255
12 | CCCCC(CC)COC(=O)CC(C(=O)OCC(CC)CCCC)S(=O)(=O)[O-].[K+] (stereo not shown) [potassium 1,4-bis[(2-ethylhexyl)oxy]-1,4-dioxobutane-2-sulfonate] | 2.0 | 83.5-100% | –
13 | CCCCC(CC)COP(=O)(O)OCC(CC)CCCC (stereo not shown) [BEHP, bis(2-ethylhexyl)phosphate] | – | – | CLint,S9 [4]: n.s.; Slope of depletion curve (log concentration vs time) ([4]; 2 mg/mL S9 protein, 11 °C): -0.0001 min-1; log DMW, membrane-water distribution ratio [5]: 3.81; Slope of depletion curve (log concentration vs time) [6]: -0.0003 min-1
14 | CCCCC(CC)COP(=O)(O)O (stereo not shown) [[(2-ethylhexyl)oxy]phosphonic acid] | < 3 | 26-78% | –
15 | CC(CC(=O)O)CC(C)(C)C (stereo not shown) [3,5,5-trimethylhexanoic acid] | – | 96% | BCF (carp): 1 to 7 L/kg
16 | CCCCCCCCCCCCCCOS(=O)(=O)O [C14SO4] | – | – | BCF (Cyprinus carpio): 11 L kg^–1
